The source of these data is patent US10828315B2 (Madrigal Pharmaceuticals, Inc., priority 2013, dated 2020).

pIC50: −log10 of the molar value. “And” between values parts separate entries of the source, which are not always exact repeats. Identical values can stand only once. Like-named read-outs stand apart in the source and are kept apart here.

Data set [1] deals with human urinary bladder cancer cell line RT-112. Nature of the data set: Cytotoxicity assay (CellTiter-Glo, 72 h), RT-112. The data set is classed as cell-based. The settings on record: read-out: Cytotoxicity (IC50, nM) RT-112. For orientation: ATP-based viability assays read luminescence as a measure of living cells.
Description: (§1) Cytotoxicity of SDC-TRAP molecules was determined in three cancer cell lines. […] 80 μL of CellTiter-Glo was added to each well, followed by room temperature incubation in the dark for 15 minutes. Cell was determined by luminescence. IC50 was calculated using XLfit™ software.
Data set [2] relates to human breast cancer cell line BT-474. Nature of the data set: Cytotoxicity assay (CellTiter-Glo, 72 h), BT-474. The settings on record: read-out: Cytotoxicity (IC50, nM) BT-474. The data set is classed as cell-based.
Description: as §1
Another data set relates to HER2. In words: HER2 degradation assay with BT-474 cell line (Example 12, FACS). The data set is classed as cell-based, human.
Data set [3] in a line: Mouse plasma stability protocol, up to 1 h (Examples 16-18).
The subject of data set [4] is human urinary bladder cancer cell line SW780. In words: Cytotoxicity assay (CellTiter-Glo, 72 h), SW780. The data set is classed as cell-based. The settings on record: read-out: Cytotoxicity (IC50, nM) SW-780.
Description: as §1
For data set [5] the following is noted: mouse, plasma, 1 h.
A short description of data set [6]: Artificial membrane permeability assay (PAMPA). The settings on record: incubation 5 h, first table. (In general: PAMPA measures passive passage across an artificial lipid membrane.)
[7] abbreviates: Tissue Distribution Data for SDC-TRAP-0098, Time (h) 0.083.
Where [8] appears, read: Tissue Distribution Data for SDC-TRAP-0098, Time (h) 1.
Where [9] appears, read: Tissue Distribution Data for SDC-TRAP-0098, Time (h) 6.
The mark [10] stands for this setting: Tissue Distribution Data for SDC-TRAP-0098, Time (h) 24.
Setting [11] is: % Remaining of parent after 1 h incubation in mouse plasma at 37° C. (10 μM).

Regarding `COc1ccc(-c2cnoc2-c2cc(OC)c(OC)c(OC)c2)cc1OC(=O)N1CCN(Cc2ccc(-n3c(O)nnc3-c3cc(C(C)C)c(O)cc3O)cc2)CC1` [SDC-TRAP-0098, 2-Methoxy-5-(5-(3,4,5-trimethoxyphenyl)isoxazol-4-yl)phenyl-4-(4-(3-(2,4-dihydroxy-5-isopropylphenyl)-5-hydroxy-4H-1,2,4-triazol-4-yl)benzyl) piperazine-1-carboxylate], the 50% inhibitory concentration (IC50) – broadly, the concentration that gives 50% inhibition – in data set [1] (RT-112, 72 h) came to 22 nM; in data set [2] (BT-474, 72 h), 41 nM; in data set [4] (SW780, 72 h), 257 nM. Also, the pIC50 (in general, the IC50 on a negative log10 scale, so that one unit is a factor of ten) in the data set on HER2 is 6.63. The “Tumor Conc.” value is on record as 5.02 nmol/g of tissue under setting [7]; 4.62 nmol/g of tissue under setting [8]; 3.18 nmol/g of tissue under setting [9]; 0.920 nmol/g of tissue under setting [10]; 0.182 nmol/g of tissue (Tissue Distribution Data for SDC-TRAP-0098, Time (h) 48). The “Tumor/Plasma Ratio” value runs as follows: under setting [7], 0.01; under setting [8], 0.62; under setting [9], 8.22; under setting [10], 300. For the same compound, the “% Remaining (1 h)” value in data set [3] (setting [11]) turned out to be 96.0%; in data set [3] (mouse plasma, 1 h), 96.0%.

Regarding `CC(C)c1cc(-c2nnc(O)n2-c2ccc(CN3CCN(C(=O)CCCc4nc5cc(N(CCCl)CCCl)ccc5n4C)CC3)cc2)c(O)cc1O` [SDC-TRAP-0069, 4-(5-(bis (2-chloroethyl)amino)-1-methyl-1H-benzo[d]imidazol-2-yl)-1-(4-(4-(3-(2,4-dihydroxy-5-isopropylphenyl)-5-hydroxy-4H-1,2,4-triazol-4-yl)benzyl)piperazin-1-yl)butan-1-one], the concentration for half-maximal inhibition (IC50) in data set [1] (RT-112, 72 h) is 909 nM; in data set [2] (BT-474, 72 h), 914 nM; in data set [4] (SW780, 72 h), 1340 nM. The same compound showed a negative logarithm of the IC50 (pIC50) with HER2 (BT-474 cells, overnight) of 5.91.

Consider `CC(C)c1cc(-c2nnc(O)n2-c2ccc(CN3CCN(C(=O)ONC(=O)CCCCCCC(=O)Nc4ccccc4)CC3)cc2)c(O)cc1O` [SDC-TRAP-0117, N1-((4-(4-(3-(2,4-dihydroxy-5-isopropylphenyl)-5-hydroxy-4H-1,2,4-triazol-4-yl)benzyl)piperazine-1-carbonyl)oxy)-N8-phenyloctanediamide], for which the half-maximal inhibitory concentration (IC50) in data set [1] (RT-112, 72 hours) was found to be 152 nM; in data set [2] (BT-474, 72 hours) it was 452 nM; in data set [4] (SW780, 72 hours) it was 284 nM. In data set [5] (10 µM), the “% Remaining (1 h)” value was found to be 3.97%.

Regarding `CCc1c2c(nc3ccc(OC(=O)N4CCN(C(=O)Cn5ccc6cc(-n7c(O)nnc7-c7cc(C(C)C)c(O)cc7O)ccc65)CC4C)cc13)-c1cc3c(c(=O)n1C2)COC(=O)C3(O)CC` (stereo not shown) [SDC-TRAP-0201, 4,11-Diethyl-4-hydroxy-3,14-dioxo-3,4,12,14-tetrahydro-1H-pyrano[3′,4′:6,7]indolizino[1,2-b]quinolin-9-yl 4-(2-(5-(3-(2,4-dihydroxy-5-isopropylphenyl)-5-hydroxy-4H-1,2,4-triazol-4-yl)-1H-indol-1-yl)acetyl)-2-methylpiperazine-1-carboxylate], the IC50 in data set [1] (RT-112, 72 h) was 72 nM; in data set [2] (BT-474, 72 h) it was 1410 nM; in data set [4] (SW780, 72 h), 1100 nM. The compound also had a negative-log IC50 (pIC50) in the data set on HER2 of 5.33.

`CCc1c2c(nc3ccc(OC(=O)N4CCC[C@H]4C(=O)N4CCN(c5ccc(-n6c(O)nnc6-c6cc(C(C)C)c(O)cc6O)cc5)CC4)cc13)-c1cc3c(c(=O)n1C2)COC(=O)[C@]3(O)CC` [SDC-TRAP-0204, (S)—(S)-4,11-diethyl-4-hydroxy-3,14-dioxo-3,4,12,14-tetrahydro-1H-pyrano[3′,4′:6,7]indolizino[1,2-b]quinolin-9-yl 2-(4-(4-(3-(2,4-dihydroxy-5-isopropylphenyl)-5-hydroxy-4H-1,2,4-triazol-4-yl)phenyl)piperazine-1-carbonyl)pyrrolidine-1-carboxylate]: the IC50 in data set [1] (RT-112, 72 h) is 1310 nM; in data set [2] (BT-474, 72 h) it was 8060 nM; in data set [4] (SW780, 72 h), above 10000 nM. In the data set on HER2, this compound showed a negative logarithm of the IC50 (pIC50) below 5.00.

Regarding `CC(C)c1cc(C(=O)N2Cc3ccc(NC(=O)CCCc4nc5cc(N(CCCl)CCCl)ccc5n4C)cc3C2)c(O)cc1O` [SDC-TRAP-0211, 4-(5-(bis(2-chloroethyl)amino)-1-methyl-1H-benzo[d]imidazol-2-yl)-N-(2-(2,4-dihydroxy-5-isopropylbenzoyl)isoindolin-5-yl)butanamide], the IC50 amounted to 110 nM in data set [1] (RT-112, 72 h); 249 nM in data set [2] (BT-474, 72 h); 2340 nM in data set [4] (SW780, 72 h). The pIC50 with HER2 (BT-474 cells, overnight) was 6.54.

Consider `Nc1cccc2c1CN(C1CCC(=O)NC1=O)C2=O` (stereo not shown) [Lenalidomide, lenalidomide, reference compound], for which the IC50 in data set [1] (RT-112, 72 hours) is above 10000 nM; in data set [2] (BT-474, 72 hours), above 10000 nM; in data set [4] (SW780, 72 hours), above 10000 nM. The “Mass Retention” value in data set [6] turned out to be 26.0%. Besides, the “Tumor Conc.” value (female, SCID, mouse, in vivo, 24 h) was 0.0574 nmol/g of tissue; the “Tumor Conc.” value (female, SCID, mouse, in vivo, 48 h) was 0.0143 nmol/g of tissue; the “Tumor Conc.” value (mouse, in vivo) was “BQL”. Besides, where the note is “mouse, in vivo”, the “Plasma Conc.” value is listed as “BQL”.

On to `CCNC(=O)c1nnc(-c2cc(C(C)C)c(O)cc2O)n1-c1ccc(C(=O)N2CCN(c3cc(C)c(OC(=O)Nc4cccc5c4CN(C4CCC(=O)NC4=O)C5=O)c(C)c3)CC2)cc1` (stereo not shown) [SDC-TRAP-0178, 4-(4-(4-(3-(2,4-dihydroxy-5-isopropylphenyl)-5-(ethylcarbamoyl)-4H-1,2,4-triazol-4-yl)benzoyl)piperazin-1-yl)-2,6-dimethylphenyl (2-(2,6-dioxopiperidin-3-yl)-1-oxoisoindolin-4-yl)carbamate], for which the half-maximal inhibitory concentration (IC50) in data set [1] (RT-112, 72 h) was 29 nM; in data set [2] (BT-474, 72 h) it was 37 nM; in data set [4] (SW780, 72 h), above 10000 nM. The negative-log IC50 (pIC50) is 6.77 and 7.04 with HER2; 7.04 in the data set on HER2 (BT-474 cells, overnight). Also, the “Plasma Conc.” value reads like this: (after SDC-TRAP-0178, 1 h) 217000 nM; (after SDC-TRAP-0178, 6 h) 4510 nM; (after SDC-TRAP-0178, 24 h) 28 nM; (after SDC-TRAP-0178, 48 h) 241 nM. Also, the “Tumor Conc.” value is reported as 12.8 nmol/g of tissue (after SDC-TRAP-0178, 1 h); 7.17 nmol/g of tissue (after SDC-TRAP-0178, 6 h); 2.81 nmol/g of tissue (after SDC-TRAP-0178, 24 h); 1.01 nmol/g of tissue (after SDC-TRAP-0178, 48 h). Moreover, the “Tumor/Plasma Ratio” value (after SDC-TRAP-0178, 1 h) turned out to be 0.0589; the “Tumor/Plasma Ratio” value (after SDC-TRAP-0178, 6 h) was 1.59; the “Tumor/Plasma Ratio” value (after SDC-TRAP-0178, 24 h) is 100; the “Tumor/Plasma Ratio” value (after SDC-TRAP-0178, […]) is reported as 0.0179. The “% Remaining (1 h)” value in data set [3] (setting [11]) stood at 82.0%; in data set [3] (mouse plasma, 37° C., 10 μM), 82.0%.

On to `CC(C)c1cc(-c2nnc(O)n2-c2ccc(CN3CCN(C(=O)c4ccc(CCc5c[nH]c6nc(N)[nH]c(=O)c56)cc4)CC3)cc2)c(O)cc1O` [SDC-TRAP-0068, 2-amino-5-(4-(4-(4-(3-(2,4-dihydroxy-5-isopropylphenyl)-5-hydroxy-4H-1,2,4-triazol-4-yl)benzyl)piperazine-1-carbonyl)phenethyl)-3H-pyrrolo[2,3-d]pyrimidin-4(7H)-one], for which the IC50 in data set [1] (RT-112, 72 hours) worked out at 74 nM; in data set [2] (BT-474, 72 hours) it was 70 nM; in data set [4] (SW780, 72 hours), 202 nM. For the same compound, the “% Remaining (1 h)” value in data set [5] (10 µM) and in data set [5] (10 μM) was 96.5% throughout.

For the compound `CCNC(=O)c1nnc(-c2cc(C(C)C)c(O)cc2O)n1-c1ccc2c(c1)CN(Cc1cc(OC)c(OC(=O)Nc3cccc4c3CN(C3CCC(=O)NC3=O)C4=O)c(OC)c1)C2` (stereo not shown) [SDC-TRAP-0196, 4-((5-(3-(2,4-dihydroxy-5-isopropylphenyl)-5-(ethylcarbamoyl)-4H-1,2,4-triazol-4-yl)isoindolin-2-yl)methyl)-2,6-dimethoxyphenyl (2-(2,6-dioxopiperidin-3-yl)-1-oxoisoindolin-4-yl)carbamate], the half-inhibitory concentration (IC50) in data set [1] (RT-112, 72 h) was 31 nM; in data set [2] (BT-474, 72 h), 17 nM; in data set [4] (SW780, 72 h), above 10000 nM. Moreover, the “Mass Retention” value in data set [6] came to 22.3%. The compound also showed a negative-log IC50 (pIC50) with HER2 of 7.05. Further, the “% Remaining (1 h)” value in data set [3] (setting [11]) worked out at 66.2%.
